Results on 40 compounds are retold here after ChEMBL document CHEMBL3046393, “3D-QSAR studies of thiosemicarbazone and thiocarbamoylpyrazoline antiamebics” (Med Chem Res, 2013).

In this assay the test system is Entamoeba histolytica. Briefly: Antiamoebic activity against trophozoite stage of Entamoeba histolytica HM-1:IMSS assessed as parasite growth inhibition after 72 hr by microdilution assay. The class given is functional, organism-based. A general note: In broth dilution the organism is exposed to a series of concentrations in liquid medium.

On to `CCN(CC)C(=S)N1CCC(c2cccc(Br)c2)=N1`, for which the IC50 (in general, the concentration that inhibits the measured activity by half) came to 1.2 µM. With `S=C(N1CCC(Cc2ccccc2)CC1)N1CCC(c2cccc(Br)c2)=N1`, the IC50 stood at 1.4 µM. With `S=C(N1CCC(Cc2ccccc2)CC1)N1CCC(c2ccccc2)=N1`, the 50% inhibitory concentration (IC50) came to 2.3 µM. The result for `S=C(N1CCN(c2ccccc2)CC1)N1CCC(c2cccc(Cl)c2)=N1` reads 1.2 µM; that for `S=C(N1CCN(c2ccccc2)CC1)N1CCC(c2ccccc2)=N1`, 3.1 µM; that for `S=C(N1CCN(c2ccccc2)CC1)N1CCC(c2cccc(Br)c2)=N1`, 1.6 µM. On to `CC1CCN(C(=S)N2CCC(c3cccc(Cl)c3)=N2)CC1`, for which the IC50 worked out at 2.8 µM. With `CC1CCN(C(=S)N2CCC(c3cccc(Br)c3)=N2)CC1`, the concentration for half-maximal inhibition (IC50) was determined as 3.6 µM. The figure for `CC1CCN(C(=S)N2CCC(c3ccccc3)=N2)CC1` is 4.8 µM; for `S=C(NCc1ccccc1Cl)N1CCC(c2cccc(Cl)c2)=N1` it is 2.2 µM. The figure for `S=C(NCc1ccccc1Cl)N1CCC(c2cccc(Br)c2)=N1` is 2.6 µM; for `S=C(NCc1ccccc1Cl)N1CCC(c2ccccc2)=N1` it is 7.6 µM. As to `S=C(NC1CCCCCCC1)N1CCC(c2cccc(Br)c2)=N1`, the IC50 was found to be 2 µM. The result for `S=C(NC1CCCCCCC1)N1CCC(c2cccc(Cl)c2)=N1` reads 1.5 µM; that for `S=C(NC1CCCC1)N1CCC(c2cccc(Cl)c2)=N1`, 3.7 µM; that for `S=C(NC1CCCCC1)N1CCC(c2ccccc2)=N1`, 5.2 µM. Regarding `S=C(NC1CCCCC1)N1CCC(c2cccc(Br)c2)=N1`, the IC50 worked out at 3.1 µM. Consider `S=C(NC1CCCCC1)N1CCC(c2cccc(Cl)c2)=N1`, for which the IC50 was found to be 2.4 µM. The result for `S=C(NC1CCCCCCC1)N1CCC(c2ccccc2)=N1` reads 2.5 µM; that for `S=C(NC1CCCC1)N1CCC(c2cccc(Br)c2)=N1`, 4.2 µM; that for `CCCN(CCC)C(=S)N1CCC(c2cccc(Cl)c2)=N1`, 0.6 µM. The result for `S=C(NC1CCCC1)N1CCC(c2ccccc2)=N1` reads 6.5 µM; that for `CCCN(CCC)C(=S)N1CCC(c2cccc(Br)c2)=N1`, 0.8 µM; that for `CCCN(CCC)C(=S)N1CCC(c2ccccc2)=N1`, 2 µM. The result for `CCN(CC)C(=S)N1CCC(c2cccc(Cl)c2)=N1` reads 1 µM.

As for `CCN(CC)C(=S)N1CCC(c2ccccc2)=N1`, the IC50 is 4.2 µM. In the case of `CCCCN(C)C(=S)N1CCC(c2cccc(Cl)c2)=N1`, the IC50 was found to be 0.7 µM. As to `CCCCN(C)C(=S)N1CCC(c2ccccc2)=N1`, the IC50 turned out to be 5.7 µM. For `CCCCN(C)C(=S)N1CCC(c2cccc(Br)c2)=N1`, the concentration for half-maximal inhibition (IC50) worked out at 2.4 µM.

Turning to `CC(C)CNC(=S)N1CCC(c2cccc(Cl)c2)=N1`, the IC50 amounted to 5 µM. `CC(C)CNC(=S)N1CCC(c2cccc(Br)c2)=N1`: the IC50 came to 6.1 µM. The figure for `CCCCNC(=S)N1CCC(c2cccc(Cl)c2)=N1` is 12.3 µM. As for `CC(C)CNC(=S)N1CCC(c2ccccc2)=N1`, the IC50 stood at 11.2 µM. As for `CCCCNC(=S)N1CCC(c2cccc(Br)c2)=N1`, the IC50 was 14.2 µM.

As for `CCCCNC(=S)N1CCC(c2ccccc2)=N1`, the IC50 amounted to 23.3 µM. The figure for `CC(C)NC(=S)N1CCC(c2cccc(Cl)c2)=N1` is 12.2 µM; for `CCCNC(=S)N1CCC(c2cccc(Br)c2)=N1` it is 8.5 µM. As to `CC(C)NC(=S)N1CCC(c2ccccc2)=N1`, the IC50 amounted to 23 µM. The result for `CCCNC(=S)N1CCC(c2ccccc2)=N1` reads 14 µM.

Turning to `CC(C)/N=C(\S)N1CCC(c2cccc(Br)c2)=N1`, the concentration for half-maximal inhibition (IC50) came out at 15.2 µM.
